Measured values published in the NIST ThermoML archive (doi:10.1016/j.jct.2013.09.030).
± gives the expanded uncertainty stated by the source.

Test: cn = amount concentration of the nth substance listed, in mol/dm3
Conditions: 303.15 K; 101 kPa; Liquid; 4510 conductivity meter (Jenway, UK); c1 = 0.0005258

electrical conductivity: 0.000611 ± 0.0002 S/m
SMILES: CC1=C(C(=O)O)N2C(=O)[C@@H](NC(=O)[C@H](N)C3=CCC=CC3)[C@H]2SC1 [Cefradin] + O
